Like-named read-outs stand apart in the source and are kept apart here.
Key:
[1] = in vivo; cited from earlier work
[2] = cited from earlier work
[3] = Accelerated stability test of crystalline form A (XRPD); type: physicochemical; settings: open, 40° C., RH75%, 3 months (sampled at 1, 2, 3 months)
Procedure: (§1) XRPD (X-ray Powder Diffraction) Method 1: about 10 mg of a sample is uniformly laid on a single crystal silicon sample disc, and XRPD detection is performed using following parameters. Instrument model: X'Pert^3 X-ray diffractometer; target: Cu-Kα (40 mA, 45 kV); scanning range from 3° to 40° in the 2θ interval.

[4] = Polymorph study: crystalline form A suspended and pulped in solvents, precipitate assayed by XRPD; type: physicochemical; settings: for Crystalline form after suspension (XRPD): stirred 2 days at 40° C. in darkness
Procedure: as §1
The solution was centrifuged to remove the precipitates, which were dried and assayed by XPRD as follows: […]

[5] = Mechanical stability of crystalline form A (XRPD after mechanical treatment); type: physicochemical
[6] = type: physicochemical; settings: for Purity by HPLC, high humidity (RH92.5%) / Purity by HPLC, high temperature (60° C.) / Purity by HPLC, light (4500 ± 500 Lux): hydrochloride

| SMILES | Purity by HPLC, high humidity (RH92.5%) ([6]; day 0) [%] | Purity by HPLC, high temperature (60° C.) ([6]; day 0) [%] | Purity by HPLC, light (4500 ± 500 Lux) ([6]; day 0) [%] | Purity by HPLC, high humidity (RH92.5%) ([6]; day 5) [%] | Purity by HPLC, high temperature (60° C.) ([6]; day 5) [%] | Purity by HPLC, light (4500 ± 500 Lux) ([6]; day 5) [%] | Purity by HPLC, high humidity (RH92.5%) ([6]; day 10) [%] | Purity by HPLC, high temperature (60° C.) ([6]; day 10) [%] | Purity by HPLC, light (4500 ± 500 Lux) ([6]; day 10) [%] | Purity by HPLC, high humidity (RH92.5%) ([6]; day 30) [%] | Purity by HPLC, high temperature (60° C.) ([6]; day 30) [%] | Purity by HPLC, light (4500 ± 500 Lux) ([6]; day 30) [%] | other results |
| --- | --- | --- | --- | --- | --- | --- | --- | --- | --- | --- | --- | --- | --- |
| CC(=O)[C@H]1CC[C@H]2[C@@H]3CC[C@H]4C[C@H](O)CC[C@]4(C)[C@H]3CC[C@]12C [allopregnanolone] | – | – | – | – | – | – | – | – | – | – | – | – | oral availability [1]: poor; human plasma half-life period [2]: about 45 minutes |
| CC(=O)[C@H]1CC[C@H]2[C@@H]3CC[C@H]4C[C@H](OC(=O)[C@@H](NC(=O)CN)C(C)C)CC[C@]4(C)[C@H]3CC[C@]12C.Cl [crystalline form A, glycine-L-valine 3α-hydroxy-5α-pregnan-20-one ester hydrochloride] | 99.69 | 99.69 | 99.69 | 99.69 | 99.62 | 99.66 | 99.69 | 99.68 | 99.70 | 99.69 | 99.69 | 99.67 | Change of crystalline form (XRPD) after accelerated stability test [3]: no change; Crystalline form after suspension (XRPD) ([4]; Acetone): Crystalline form A; Crystalline form after suspension (XRPD) ([4]; Ethanol): Crystalline form A; Crystalline form after suspension (XRPD) ([4]; Ethyl acetate): Crystalline form A; Crystalline form after suspension (XRPD) ([4]; Methanol): Crystalline form A; Crystalline form after suspension (XRPD) ([4]; Methyl tert-butyl ether): Crystalline form A; Crystalline form after suspension (XRPD) ([4]; Toluene): Crystalline form A; Crystalline form after suspension (XRPD) ([4]; n-Heptane): Crystalline form A; Stability in different solvent systems (conclusion) ([4]; seven solvents, 2 days at 40° C.): remains stable; Effect of grinding, mechanical pulverising and pressure on stability (conclusion) [5]: no effects; Crystalline form after mechanical treatment (XRPD) ([5]; Ground in an agate mortar for a few minutes): Crystalline form A; Crystalline form after mechanical treatment (XRPD) ([5]; pressed in a tablet press): Crystalline form A; Crystalline form after mechanical treatment (XRPD) ([5]; pulverised in a mechanical shredder for a few minutes): Crystalline form A; Stability under high temperature, high humidity and light conditions (conclusion) ([6]; up to 30 days): stable |
| CC(=O)[C@H]1CC[C@H]2[C@@H]3CC[C@H]4C[C@H](OC(=O)[C@@H](NC(=O)CN)C(C)C)CC[C@]4(C)[C@H]3CC[C@]12C.Cl [crystalline form B, glycine-L-valine 3α-hydroxy-5α-pregnan-20-one ester hydrochloride] | 99.59 | 99.59 | 99.59 | 99.58 | 99.57 | 99.55 | 99.55 | 99.54 | 99.53 | 99.56 | 99.52 | 99.52 | – |
| CC(=O)[C@H]1CC[C@H]2[C@@H]3CC[C@H]4C[C@H](OC(=O)[C@@H](NC(=O)CN)C(C)C)CC[C@]4(C)[C@H]3CC[C@]12C.Cl [crystalline form C, glycine-L-valine 3α-hydroxy-5α-pregnan-20-one ester hydrochloride] | 99.62 | 99.62 | 99.62 | 99.58 | 99.61 | 99.60 | 99.56 | 99.59 | 99.59 | 99.53 | 99.60 | 99.57 | – |

Reference: patent publication US20240132536A1, “CRYSTAL FORM OF 3-HYDROXY-5-PREGNANE-20-ONE DERIVATIVE, AND PREPARATION METHOD THEREFOR AND USE THEREOF” (priority 2021, published 2024)
